From patent publication US10550105B2 (Ribon Therapeutics Inc., priority 2018, dated 2020) come the findings set out here.

By pIC50 is commonly meant the IC50 on a negative log10 scale, so that one unit is a factor of ten. Low readings indicate a high IC50, high ones a low IC50.

Each structure is given as a SMILES string. pIC50: −log10 of the molar value.

The target in this test is PARP7 (Homo sapiens (Human), UniProt Q7Z3E1). Nature of the test: Enzymatic assay for inhibition of PARP7: TR-FRET displacement of biotinylated Probe A from the TIPARP active site. The class given is binding. Conditions: Table A-1. In a few lines: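 Displacement of biotinylated Probe A from TIPARP was measured as the 665/615 nm time-resolved FRET ratio (excitation 320 nm, 90 μs delay) after a further 30 min at 25 °C. Inhibition across compound concentrations was fitted by dose-response regression, with the Hill slope free or fixed at 1 (3-parameter fit).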
Chain of PARP7 (Q7Z3E1 whole entry): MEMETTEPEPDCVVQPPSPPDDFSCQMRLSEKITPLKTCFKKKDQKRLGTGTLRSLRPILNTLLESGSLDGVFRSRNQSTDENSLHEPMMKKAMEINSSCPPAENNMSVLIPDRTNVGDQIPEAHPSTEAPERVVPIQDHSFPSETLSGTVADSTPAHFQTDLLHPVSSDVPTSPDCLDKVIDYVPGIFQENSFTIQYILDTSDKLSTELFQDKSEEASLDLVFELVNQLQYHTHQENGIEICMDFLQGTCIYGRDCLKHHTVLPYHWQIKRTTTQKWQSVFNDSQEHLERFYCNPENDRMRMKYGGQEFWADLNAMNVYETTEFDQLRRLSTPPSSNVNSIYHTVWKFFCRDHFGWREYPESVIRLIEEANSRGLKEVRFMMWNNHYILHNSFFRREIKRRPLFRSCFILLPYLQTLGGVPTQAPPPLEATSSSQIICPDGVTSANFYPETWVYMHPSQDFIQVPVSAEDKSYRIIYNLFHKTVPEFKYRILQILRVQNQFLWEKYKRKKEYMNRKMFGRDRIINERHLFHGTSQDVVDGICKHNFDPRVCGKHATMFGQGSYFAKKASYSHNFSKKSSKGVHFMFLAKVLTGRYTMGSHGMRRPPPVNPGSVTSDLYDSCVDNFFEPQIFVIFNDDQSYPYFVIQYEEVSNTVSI

Regarding `N#Cc1ccc(N2CCN(CCCOC[C@@H]3CCCN3c3cn[nH]c(=O)c3C(F)(F)F)CC2)nc1` [Example 90], the pIC50 is over 7.00.
The same measure for `CN(CC[C@@H]1CCCN1c1cn[nH]c(=O)c1C(F)(F)F)CC(=O)N1CCN(c2ccc(C#N)cn2)CC1` [Example 91]: 6.00 to 7.00; for `N#Cc1ccc(N2CCN(C(=O)C3CCC(OCC4CCN(c5cn[nH]c(=O)c5C(F)(F)F)C4)CC3)CC2)nc1` (centres unmarked) [Example 97, 6-[4-[4-([1-[6-oxo-5-(trifluoromethyl)-1,6-dihydropyridazin-4-yl]pyrrolidin-3-yl]methoxy)cyclohexanecarbonyl]piperazin-1-yl]pyridine-3-carbonitrile]: over 7.00.
The figure for `N#Cc1ccc(OC2CCC(NC(=O)CCOC[C@@H]3CCCN3c3cn[nH]c(=O)c3C(F)(F)F)CC2)nc1` (stereo partly drawn) [Example 99, N-(4-[(5-cyanopyridin-2-yl)oxy]cyclohexyl]-3-[[(2S)-1-[6-oxo-5-(trifluoromethyl)-1,6-dihydropyridazin-4-yl]pyrrolidin-2-yl]methoxy]propanamide] is 6.00 to 7.00; for `C[C@@H]1CN(c2ccc(C#N)cn2)CCN1C(=O)CCOC[C@@H]1CCCN1c1cn[nH]c(=O)c1C(F)(F)F` [Example 100A, 6-[(3R)-3-methyl-4-(3-[[(2S)-1-[6-oxo-5-(trifluoromethyl)-1,6-dihydropyridazin-4-yl]pyrrolidin-2-yl]methoxy]propanoyl)piperazin-1-yl]pyridine-3-carbonitrile] it is over 7.00.
The figure for `C[C@H]1CN(c2ccc(C#N)cn2)CCN1C(=O)CCOC[C@@H]1CCCN1c1cn[nH]c(=O)c1C(F)(F)F` [Example 100B, 6-[(3S)-3-methyl-4-(3-[[(2S)-1-[6-oxo-5-(trifluoromethyl)-1,6-dihydropyridazin-4-yl]pyrrolidin-2-yl]methoxy]propanoyl)piperazin-1-yl]pyridine-3-carbonitrile] is over 7.00.
The compound `N#Cc1ccc(N2CC3CCC2CN3C(=O)CCOC[C@@H]2CCCN2c2cn[nH]c(=O)c2C(F)(F)F)nc1` (stereo partly drawn) [Example 101, 6-[5-(3-[[(2S)-1-[6-oxo-5-(trifluoromethyl)-1,6-dihydropyridazin-4-yl]pyrrolidin-2-yl]methoxy]propanoyl)-2,5-diazabicyclo[2.2.2]octan-2-yl]pyridine-3-carbonitrile] gave a pIC50 of over 7.00.
Turning to `N#Cc1ccc(N2C3CCC2CN(C(=O)CCOC[C@@H]2CCCN2c2cn[nH]c(=O)c2C(F)(F)F)C3)nc1` [Example 102, 6-[3-(3-[[(2S)-1-[6-oxo-5-(trifluoromethyl)-1,6-dihydropyridazin-4-yl]pyrrolidin-2-yl]methoxy]propanoyl)-3,8-diazabicyclo[3.2.1]octan-8-yl]pyridine-3-carbonitrile], the pIC50 was over 7.00.
The figure for `N#Cc1ccc(N2CCC3(CCN(C(=O)CCOC[C@@H]4CCCN4c4cn[nH]c(=O)c4C(F)(F)F)C3)CC2)nc1` [Example 103, 6-[2-(3-[[(2S)-1-[6-oxo-5-(trifluoromethyl)-1,6-dihydropyridazin-4-yl]pyrrolidin-2-yl]methoxy]propanoyl)-2,8-diazaspiro [4.5]decan-8-yl]pyridine-3-carbonitrile] is 6.00 to 7.00.
The compound `N#Cc1ccc(N2CCC3(CCN(C(=O)CCOC[C@@H]4CCCN4c4cn[nH]c(=O)c4C(F)(F)F)CC3)C2)nc1` [Example 104, 6-[8-(3-[[(2S)-1-[6-oxo-5-(trifluoromethyl)-1,6-dihydropyridazin-4-yl]pyrrolidin-2-yl]methoxy]propanoyl)-2,8-diazaspiro[4.5]decan-2-yl]pyridine-3-carbonitrile] showed a pIC50 of at most 6.00.
The same measure for `N#Cc1ccc(N2CCC3(CC2)CN(C(=O)CCOC[C@@H]2CCCN2c2cn[nH]c(=O)c2C(F)(F)F)C3)nc1` [Example 105, 6-[2-(3-[[(2S)-1-[6-oxo-5-(trifluoromethyl)-1,6-dihydropyridazin-4-yl]pyrrolidin-2-yl]methoxy]propanoyl)-2,7-diazaspiro[3.5]nonan-7-yl]pyridine-3-carbonitrile]: 6.00 to 7.00; for `N#Cc1ccc(N2CCCN(C(=O)CCOC[C@@H]3CCCN3c3cn[nH]c(=O)c3C(F)(F)F)CC2)nc1` [Example 106, (S)-6-(4-(3-((1-(6-oxo-5-(trifluoromethyl)-1,6-dihydropyridazin-4-yl)pyrrolidin-2-yl)methoxy)propanoyl)-1,4-diazepan-1-yl)nicotinonitrile]: over 7.00; for `N#Cc1ccc(NC2CN(C(=O)CCOC[C@@H]3CCCN3c3cn[nH]c(=O)c3C(F)(F)F)C2)nc1` [Example 107, 6-[[1-(3-[[(2S)-1-[6-oxo-5-(trifluoromethyl)-1,6-dihydropyridazin-4-yl]pyrrolidin-2-yl]methoxy]propanoyl)azetidin-3-yl]amino]pyridine-3-carbonitrile]: over 7.00.
Compound `N#Cc1ccc(N2CC3(CN(C(=O)CCOC[C@@H]4CCCN4c4cn[nH]c(=O)c4C(F)(F)F)C3)C2)nc1` [Example 108, 6-[6-(3-[[(2S)-1-[6-oxo-5-(trifluoromethyl)-1,6-dihydropyridazin-4-yl]pyrrolidin-2-yl]methoxy]propanoyl)-2,6-diazaspiro [3.3]heptan-2-yl]pyridine-3-carbonitrile] showed a pIC50 of 6.00 to 7.00.
The figure for `N#Cc1ccc(N2CCC3(CN(C(=O)CCOC[C@@H]4CCCN4c4cn[nH]c(=O)c4C(F)(F)F)C3)C2)nc1` [Example 109, 6-[2-(3-[[(2S)-1-[6-oxo-5-(trifluoromethyl)-1,6-dihydropyridazin-4-yl]pyrrolidin-2-yl]methoxy]propanoyl)-2,6-diazaspiro[3.4]octan-6-yl]pyridine-3-carbonitrile] is 6.00 to 7.00; for `N#Cc1ccc(N2CCC3(CCN(C(=O)CCOC[C@@H]4CCCN4c4cn[nH]c(=O)c4C(F)(F)F)C3)C2)nc1` (stereo partly drawn) [Example 111, 6-[7-(3-[[(2S)-1-[6-oxo-5-(trifluoromethyl)-1,6-dihydropyridazin-4-yl]pyrrolidin-2-yl]methoxy]propanoyl)-2,7-diazaspiro[4.4]nonan-2-yl]pyridine-3-carbonitrile] it is 6.00 to 7.00.
The figure for `N#Cc1ccc(N2C[C@@H]3C[C@H]2CN3C(=O)CCOC[C@@H]2CCCN2c2cn[nH]c(=O)c2C(F)(F)F)nc1` [Example 112A, 6-[(1S,4S)-5-(3-(((S)-1-(6-oxo-5-(trifluoromethyl)-1,6-dihydropyridazin-4-yl)pyrrolidin-2-yl)methoxy)propanoyl)-2,5-diaza-bicyclo[2.2.1]heptan-2-yl)nicotinonitrile] is 6.00 to 7.00; for `N#Cc1ccc(N2C[C@H]3C[C@@H]2CN3C(=O)CCOC[C@@H]2CCCN2c2cn[nH]c(=O)c2C(F)(F)F)nc1` [Example 112B, 6-[(1R,4R)-5-(3-(((S)-1-(6-oxo-5-(trifluoromethyl)-1,6-dihydropyridazin-4-yl)pyrrolidin-2-yl)methoxy)propanoyl)-2,5-diaza-bicyclo[2.2.1]heptan-2-yl)nicotinonitrile] it is at most 6.00; for `N#Cc1ccc(N2CCCC(NC(=O)CCOC[C@@H]3CCCN3c3cn[nH]c(=O)c3C(F)(F)F)C2)nc1` (stereo partly drawn) [Example 114, N-[1-(5-cyanopyridin-2-yl)piperidin-3-yl]-3-[[(2S)-1-[6-oxo-5-(trifluoromethyl)-1,6-dihydropyridazin-4-yl]pyrrolidin-2-yl]methoxy]propanamide] it is at most 6.00.
As to `N#Cc1ccc(N2CCC(NC(=O)CCOC[C@@H]3CCCN3c3cn[nH]c(=O)c3C(F)(F)F)CC2)nc1` [Example 115, N-[1-(5-cyanopyridin-2-yl)piperidin-4-yl]-3-[[(2S)-1-[6-oxo-5-(trifluoromethyl)-1,6-dihydropyridazin-4-yl]pyrrolidin-2-yl]methoxy]propanamide], the pIC50 was over 7.00.
The compound `N#Cc1ccc(NC2CCN(C(=O)CCOC[C@@H]3CCCN3c3cn[nH]c(=O)c3C(F)(F)F)CC2)nc1` [Example 116, 6-[[1-(3-[[(2S)-1-[6-oxo-5-(trifluoromethyl)-1,6-dihydropyridazin-4-yl]pyrrolidin-2-yl]methoxy]propanoyl)piperidin-4-yl]amino]pyridine-3-carbonitrile] showed a pIC50 of over 7.00.
As for `N#Cc1ccc(N2CCC(NC(=O)CCOC[C@@H]3CCCN3c3cn[nH]c(=O)c3C(F)(F)F)C2)nc1` (stereo partly drawn) [Example 117, N-[1-(5-cyanopyridin-2-yl)pyrrolidin-3-yl]-3-[[(2S)-1-[6-oxo-5-(trifluoromethyl)-1,6-dihydropyridazin-4-yl]pyrrolidin-2-yl]methoxy]propanamide], the pIC50 is 6.00 to 7.00.
The figure for `CC(C)(COC[C@@H]1CCCN1c1cn[nH]c(=O)c1C(F)(F)F)CC(=O)N1CCN(c2ccc(C#N)cn2)CC1` [Example 118, 6-[4-(3,3-dimethyl-4-[[(2S)-1-[6-oxo-5-(trifluoromethyl)-1,6-dihydropyridazin-4-yl]pyrrolidin-2-yl]methoxy]butanoyl)piperazin-1-yl]pyridine-3-carbonitrile] is over 7.00.
With `N#Cc1ccc(N2CCN(C(=O)C#CCOC[C@@H]3CCCN3c3cn[nH]c(=O)c3C(F)(F)F)CC2)nc1` [Example 119, 6-[4-(4-[[(2S)-1-[6-oxo-5-(trifluoromethyl)-1,6-dihydropyridazin-4-yl]pyrrolidin-2-yl]methoxy]but-2-ynoyl)piperazin-1-yl]pyridine-3-carbonitrile], the pIC50 is over 7.00.
The compound `N#Cc1ccc(N2CCN(C(=O)C3CC(OC[C@@H]4CCN(c5cn[nH]c(=O)c5C(F)(F)F)C4)C3)CC2)nc1` (stereo partly drawn) [Example 121A, 6-(4-((1R,3R)-3-((1-(6-oxo-5-(trifluoromethyl)-1,6-dihydropyridazin-4-yl)pyrrolidin-3-yl)methoxy)cyclobutanecarbonyl)piperazin-1-yl)nicotinonitrile] had a pIC50 of over 7.00.
Compound `N#Cc1ccc(N2CCN(C(=O)[C@H]3C[C@@H](OC[C@H]4CCN(c5cn[nH]c(=O)c5C(F)(F)F)C4)C3)CC2)nc1` [Example 121B, 6-(4-((1S,3S)-3-((1-(6-oxo-5-(trifluoromethyl)-1,6-dihydropyridazin-4-yl)pyrrolidin-3-yl)methoxy)cyclobutanecarbonyl)piperazin-1-yl)nicotinonitrile] had a pIC50 of over 7.00.
